Test results from PMC5085765, “Discovery of Potent Carbonic Anhydrase and Acetylcholinesterase Inhibitors: 2-Aminoindan β-Lactam Derivatives” (International Journal of Molecular Sciences, 2016).

How the values were obtained:
[1] = biological target: T1, hCA I (Homo sapiens, UniProt P00915); test: hCA I inhibition, esterase assay with p-nitrophenylacetate as substrate; assay type: biochemical; details: NPA substrate; for Ki: Lineweaver-Burk plots; for IC50: purified from human erythrocytes
T1 construct: from tissue; host or cells: human erythrocytes
Procedure: (§1) Erythrocytes were obtained from the Research Hospital at Atatürk University. The red cells were haemolysed with ice-cold water after washing with 0.9% NaCl. The hemolysate was applied to the prepared Sepharose-4B-tyrosine-sulfanylamide affinity gel. Both CA isoenzymes were purified by Sepharose-4B-L-tyrosine-sulfanilamide affinity chromatography in a single step [58, 59, 60]. Sepharose-4B-L-tyrosine-sulfanilamide was prepared according to a previous method. Thus, homogenate solution acidity was adjusted and supernatant was transferred to the previously prepared Sepharose-4B-L-tyrosine-sulphanilamide affinity column. The proteins flow in the column eluates was spectrophotometrically determined at 280 nm. All purification steps were performed at 4 °C. Protein quantity was determined at 595 nm according to the Bradford method. Bovine serum albumin was used as the standard protein [64, 65, 66]. To monitor purification of both isoenzymes, sodium dodecyl sulphate-polyacrylamide gel electrophoresis (SDS-PAGE) was used according to the procedure of Laemmli. In this application, the imaging method was performed in 10% and 3% acrylamide for the running and the stacking gel, respectively, with 0.1% SDS [68, 69, 70].
(§2) Enzyme activity was determined hydrolysis of p-nitrophenylacetate (PNA) to p-nitrophenolate at 348 nm according to the method of Verpoorte et al. and described previously. The inhibitory effects of β-lactam derivatives 2a–k were examined. To obtain the half maximal inhibitory concentration (IC50) values, CA I, and II activity was measured in the presence of β-lactam derivatives at different cuvette concentrations. Activity (%)-[β-lactam] graph was drawn for each of the β-lactam derivatives 2a–k. To determine Ki values, three different β-lactam derivative concentrations were tested. In these experiments, different substrate (PNA) concentrations were used and Lineweaver-Burk curves were drawn as previously described.

[2] = biological target: T2, hCA II (Homo sapiens, UniProt P00918); test: hCA II inhibition, esterase assay with p-nitrophenylacetate as substrate; assay type: biochemical; details: NPA substrate; for Ki: Lineweaver-Burk plots; for IC50: purified from human erythrocytes
T2 construct: from tissue; host or cells: human erythrocytes
Procedure: as §1, §2

T1 sequence (P00915 whole entry): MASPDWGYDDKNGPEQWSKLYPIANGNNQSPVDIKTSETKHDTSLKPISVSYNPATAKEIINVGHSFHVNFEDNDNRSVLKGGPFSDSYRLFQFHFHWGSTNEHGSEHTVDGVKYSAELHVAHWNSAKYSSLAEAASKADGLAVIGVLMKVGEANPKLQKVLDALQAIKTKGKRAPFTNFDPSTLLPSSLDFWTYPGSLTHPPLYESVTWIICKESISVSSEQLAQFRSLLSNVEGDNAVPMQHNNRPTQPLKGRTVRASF

| SMILES | Ki [1] [nM] | IC50 [1] [nM] | Ki [2] [nM] | IC50 [2] [nM] |
| --- | --- | --- | --- | --- |
| CC(=O)O[C@@H]1C(=O)N(C2Cc3ccccc3C2)[C@@H]1c1ccccc1 (relative stereo) [Compound 2a, (3S*,4R*)-1-(2,3-Dihydro-1H-inden-2-yl)-2-oxo-4-phenylazetidin-3-yl acetate] | 0.44 ± 0.115 | 0.612 | 3.54 ± 0.405 | 5.21 |
| COc1cccc([C@@H]2[C@H](OC(C)=O)C(=O)N2C2Cc3ccccc3C2)c1 (relative stereo) [Compound 2b, (3S*,4R*)-1-(2,3-Dihydro-1H-inden-2-yl)-2-(3-methoxyphenyl)-4-oxoazetidin-3-yl acetate] | 1.41 ± 0.547 | 2.3 | 3.15 ± 1.14 | 6.42 |
| CC(=O)O[C@@H]1C(=O)N(C2Cc3ccccc3C2)[C@@H]1c1ccc(C)cc1 (relative stereo) [Compound 2c, (3S*,4R*)-1-(2,3-Dihydro-1H-inden-2-yl)-2-oxo-4-p-tolylazetidin-3-yl acetate] | 1.5 ± 0.657 | 2.11 | 2.96 ± 0.157 | 3.71 |
| CC(=O)O[C@@H]1C(=O)N(C2Cc3ccccc3C2)[C@@H]1c1cccc(C)c1 (relative stereo) [Compound 2d, (3S*,4R*)-1-(2,3-Dihydro-1H-inden-2-yl)-2-oxo-4-m-tolylazetidin-3-yl acetate] | 1.49 ± 0.29 | 0.231 | 3.26 ± 0.708 | 4.18 |
| CC(=O)O[C@@H]1C(=O)N(C2Cc3ccccc3C2)[C@@H]1c1cccc(Cl)c1 (relative stereo) [Compound 2e, (3S*,4R*)-2-(3-Chlorophenyl)-1-(2,3-dihydro-1H-inden-2-yl)-4-oxoazetidin-3-yl acetate] | 6.29 ± 2.07 | 3.98 | 8.34 ± 3.53 | 5.83 |
| CC(=O)O[C@@H]1C(=O)N(C2Cc3ccccc3C2)[C@@H]1c1ccc(Cl)c(Cl)c1 (relative stereo) [Compound 2f, (3S*,4R*)-2-(3,4-Dichlorophenyl)-1-(2,3-dihydro-1H-inden-2-yl)-4-oxoazetidin-3-yl acetate] | 1.16 ± 0.514 | 1.63 | 1.5 ± 0.421 | 5.97 |
| CC(=O)O[C@@H]1C(=O)N(C2Cc3ccccc3C2)[C@@H]1c1cccc(Br)c1 (relative stereo) [Compound 2g, (3S*,4R*)-2-(3-Bromophenyl)-1-(2,3-dihydro-1H-inden-2-yl)-4-oxoazetidin-3-yl acetate] | 0.35 ± 0.105 | 0.652 | 3.39 ± 1.16 | 3.81 |
| CC(=O)O[C@@H]1C(=O)N(C2Cc3ccccc3C2)[C@@H]1c1ccccc1Br (relative stereo) [Compound 2h, (3S*,4R*)-2-(2-Bromophenyl)-1-(2,3-dihydro-1H-inden-2-yl)-4-oxoazetidin-3-yl acetate] | 0.91 ± 0.143 | 2.65 | 2.19 ± 0.921 | 5.21 |
| CC(=O)O[C@@H]1C(=O)N(C2Cc3ccccc3C2)[C@@H]1c1ccccc1[N+](=O)[O-] (relative stereo) [Compound 2j, (3S*,4R*)-1-(2,3-Dihydro-1H-inden-2-yl)-2-(2-nitrophenyl)-4-oxoazetidin-3-yl acetate] | 1.09 ± 0.136 | 4.81 | 2.88 ± 1.17 | 5.02 |
| CC(=O)O[C@@H]1C(=O)N(C2Cc3ccccc3C2)[C@@H]1c1ccc(F)cc1 (relative stereo) [Compound 2k, (3S*,4R*)-1-(2,3-Dihydro-1H-inden-2-yl)-2-(4-fluorophenyl)-4-oxoazetidin-3-yl acetate] | 0.94 ± 0.43 | 2.5 | 1.34 ± 0.539 | 6.86 |
| CC(=O)OC1C(=O)N(C2Cc3ccccc3C2)C1c1ccc(Br)cc1 (stereo not drawn) [Compound 2ı, (3S*,4R*)-2-(4-Bromophenyl)-1-(2,3-dihydro-1H-inden-2-yl)-4-oxoazetidin-3-yl acetate] | 0.97 ± 0.245 | 2.55 | 0.93 ± 0.295 | 4.03 |
